This note sets out measurements from publication PMC6399351, “Cationic Intrinsically Disordered Antimicrobial Peptides (CIDAMPs) Represent a New Paradigm of Innate Defense with a Potential for Novel Anti-Infectives” (Scientific Reports, 2019).

In brackets after ≈: the same amount, converted by molar mass. Several values for one entry are separate records, joined by “and”; a condition that tells them apart may be missing. Equal values may be shown once. Read-outs that look alike come from different tables or passages of the source. Square brackets hold non-standard residues; d marks the D form. Ends that are not written are not given here. Peptide text beside a SMILES is read from it. * marks the point of attachment. Palmitoyl = CCCCCCCCCCCCCCCC(=O)*

The test system of experiment [1] is Acinetobacter baumannii ATCC 19606. Briefly: CO-ADD MIC, broth microdilution (CLSI). Type of experiment: cell-based. Conditions: Mueller–Hinton broth, 5 × 10^5 CFU/mL, 18 h 37 °C, by CO-ADD. From the text: (§1) They were defined as the lowest peptide
(§2) Further details of the screening
A general note: Dilution methods test growth across graded concentrations, often in twofold steps.

Experiment [2] relates to Pseudomonas aeruginosa ATCC 27853. Briefly: CO-ADD MIC, broth microdilution (CLSI). Type of experiment: cell-based. Conditions: Mueller–Hinton broth, 5 × 10^5 CFU/mL, 18 h 37 °C, by CO-ADD.
Excerpt: as §1, §2

The subject of experiment [3] is Candida albicans ATCC 90028. Briefly: CO-ADD MIC, antifungal assay (CLSI). Conditions: Yeast Nitrogen Base broth, 24 h 35 °C, by CO-ADD. It counts as cell-based. As for the experimental part: (§3) Fungi strains were cultured for 3 days on Yeast Extract-Peptone Dextrose (YPD) agar at 30 °C. A yeast suspension of 1 × 10^6 to 5 × 10^6 cells/mL (as determined by OD530) was prepared from five colonies. These stock suspensions were diluted with Yeast Nitrogen Base (YNB) broth to a final concentration of 2.5 × 10^3 CFU/mL. […] Plates were covered and incubated at 35 °C for 24 h without shaking.

In experiment [4] the test system is Cryptococcus neoformans ATCC 208821. The experiment is described as follows: CO-ADD MIC, antifungal assay (CLSI). The conditions noted are these: Yeast Nitrogen Base broth, 24 h 35 °C, by CO-ADD. It counts as cell-based. As for the experimental part: as §3
Experiment [5] concerns E. coli ATCC 25922. Briefly: CO-ADD MIC, broth microdilution (CLSI). Type of experiment: cell-based, Escherichia coli. Conditions: Mueller–Hinton broth, 5 × 10^5 CFU/mL, 18 h 37 °C, by CO-ADD.
Excerpt: as §1, §2

Experiment [6] relates to P. aeruginosa ATCC 10145. The conditions noted are these: CFU assay, 10 mM NaP.
For experiment [7], the system named is S. aureus ATCC 6538.
The subject of experiment [8] is Klebsiella pneumonia ATCC 700603. Conditions: MDR strain; CLSI, Mueller–Hinton broth, 5 × 10^5 CFU/mL, 18 h 37 °C, by CO-ADD.
Experiment [9] relates to Staphylococcus aureus ATCC 43300. The conditions noted are these: MRSA; CLSI, Mueller–Hinton broth, 5 × 10^5 CFU/mL, 18 h 37 °C, by CO-ADD.
The subject of experiment [10] is E. coli ATCC 11775. Briefly: CFU assay of antimicrobial activity. Type of experiment: cell-based, Escherichia coli. Conditions: 10 mM NaP, pH 5.5, 1% TSB. As for the experimental part: (§4) All purified peptides and recombinant proteins were applied using a colony forming unit (CFU) assay in different media. Bacteria were grown to early log-phase in BHI, washed either with 10 mM Na-P, pH 7.4/1% TSB or pH 5.5/1% TSB, or pH 5.5 without TSB or BHI, and adjusted to a concentration of 10^4–10^5 colony forming units (CFU)/ml. For cell number control, 100 µl aliquots were diluted 1:10, 1:100 and 1:1000 and plated in duplicates on BHI agar plates. To 100 µl aliquots of the bacteria, suspended in the respective medium (10 mM Na-P buffer pH 7,0–7,4/ 1% (w/v) TSB; 10 mM Na-P buffer pH 5,5/ 1% (w/v) TSB; 10 mM Na-P buffer pH 7,0–7,4/ 1% (w/v) TSB pH 7,0–7,4/ 0,25% (w/v) glucose; 10 mM Na-P buffer pH 5,5/ 0,25% (w/v) glucose, respectively), 10 µl of a solution of the peptide or protein (two-fold dilutions, from 300 µg/ml or 150 µg/ml down to 19 ng/ml), dissolved in 0.01% (v/v) acetic acid, were added.
(§5) Then bacteria were incubated for 2 h at ambient temperature, if not otherwise stated. 10 µl of 0.01% (v/v) acetic acid, added to 100 µl aliquots of the bacteria in the respective medium, served as negative control. From each test, 1:10 and 1:100 dilutions were generated and plated as duplicates of 100 µl aliquots on BHI agar plates. After 16 h incubation at 37 °C, CFU were counted using a colony counter (Bio Kobe, Japan) and expressed as mean of the duplicate estimation to achieve a complete dose-response curve. All experiments were performed at serial dilutions in a concentration range of 100 µg/mL −25 ng/mL for recombinant HRNR fragments and 300 or 150 µg/mL–19 ng/mL for synthetic peptides.

The test system of experiment [11] is C. albicans ATCC 24433. Briefly: CFU assay of antimicrobial activity. Type of experiment: cell-based, Candida albicans. Conditions: 10 mM NaP. As for the experimental part: Bacteria were cultivated in either brain heart infusion medium (BHI), lysogeny broth (LB) or tryptic soy broth (TSB)[88]. If not otherwise stated, bacteria were incubated under shaking conditions (37 °C at 170 rpm) or as indicated on the ATCC- or DSM-data sheets. Candida albicans was cultured for 3 days on Yeast Extract-Peptone Dextrose (YPD) agar at 30 °C and yeast suspensions at appropriate density were treated with CIDAMPs as indicated.
as §4, §5

In experiment [12] the test system is Burkholderia cepacia ATCC 25416. Conditions: CFU assay, 10 mM NaP, pH 5.5, 0.25% glucose.
For experiment [13], the system named is Corynebacterium simulans DSM 44415. The experiment is described as follows: CFU assay of antimicrobial activity. It counts as cell-based. Conditions: 10 mM NaP, pH 6.0, 0.25% glucose. The procedure: All purified peptides and recombinant proteins were applied using a colony forming unit (CFU) assay in different media. Bacteria were grown to early log-phase in BHI, washed either with 10 mM Na-P, pH 7.4/1% TSB or pH 5.5/1% TSB, or pH 5.5 without TSB or BHI, and adjusted to a concentration of 10^4–10^5 colony forming units (CFU)/ml. For cell number control, 100 µl aliquots were diluted 1:10, 1:100 and 1:1000 and plated in duplicates on BHI agar plates. […]
as §5

The mark [14] stands for this setting: CFU assay, 10 mM NaP, pH 5.5, 0.25% glucose.
[15] abbreviates: CFU assay, 10 mM NaP, pH 5.5, 1% TSB.
Where [16] appears, read: CFU assay, 10 mM NaP, pH 7.0, 0.25% glucose.

Take `CCCCCCCCCCCCCCCC(=O)NCC(=O)N[C@H](CCCNC(=N)N)C(=O)N[C@H](CCCNC(=N)N)C(=O)NCC(=O)NCC(=O)N[C@H](CCCNC(=N)N)C(=O)NCC(=O)NCC(=O)N[C@H](CCCNC(=N)N)C(=O)NCC(=O)N[C@H](CCCNC(=N)N)C(=O)NCC(=O)N[C@H](CCCNC(=N)N)C(=O)O` [(D)-Pal-GR13] (Palmitoyl-G[dR][dR]GG[dR]GG[dR]G[dR]G[dR]-OH; C-terminus assumed): the “Minimal inhibitory concentration (MIC)” value in experiment [1] is on record as 8 µg/mL (≈ 5.02 µM); in experiment [2] it was 16 µg/mL (≈ 10 µM); in experiment [3], 8 µg/mL (≈ 5.02 µM); in experiment [4], 2 µg/mL (≈ 1.26 µM); in [5], 8 µg/mL (≈ 5.02 µM); in [8] it was at least 32 µg/mL. Besides, the “Minimal inhibitory concentration (MIC)” value in experiment [9] was 2 µg/mL (≈ 1.26 µM). Moreover, the LD90 in experiment [6] (pH 5.5, 0.25% glucose) came to 0.075 µg/mL; in experiment [7] (setting [14]) it was 0.075 µg/mL. Moreover, the LD100 is 0.3 µg/mL in [6] (pH 5.5, 0.25% glucose) and 75 µg/mL in [7] (setting [14]). Moreover, the “LD99 (concentration of peptide which kills 99.0% of inoculum)” value in experiment [7] (setting [14]) is reported as 0.59 µg/mL.
Turning to GRHGSGLGHSSSHGQHGSGSGRSSSRGPY [HR 1-17], the LD90 in experiment [10] is above 300 µg/mL; in [11] (pH 5.5, 0.25% glucose), 18.8 µg/mL; in experiment [11] (pH 5.5, 1% TSB), 18.8 µg/mL; in experiment [6] (pH 5.5, 0.25% glucose), 0.038 µg/mL and 0.075 µg/mL; in [6] (pH 5.5, 1% TSB) it was 0.59 µg/mL; in experiment [7] (setting [15]), above 300 µg/mL. In addition, the LD90 in experiment [12] is above 300 µg/mL. For the same compound, the LD100 in [10] is above 300 µg/mL; in [11] (pH 5.5, 0.25% glucose), 9.38 µg/mL; in experiment [11] (pH 5.5, 1% TSB), 150 µg/mL; in experiment [6] (pH 5.5, 0.25% glucose) it was 0.15 µg/mL and 0.3 µg/mL; in experiment [6] (pH 5.5, 1% TSB), 18.75 µg/mL; in experiment [7] (setting [15]), above 300 µg/mL. The LD100 in [12] is above 300 µg/mL.
In the case of GRRGSGLGRSSSRGGRGSGSGR [HR 1-18,4H-4R], the “Minimal inhibitory concentration (MIC)” value in [1], in experiment [2], in [3], in [4], in experiment [5] and in experiment [8] was above 32 µg/mL in each case. Also, in [9], the “Minimal inhibitory concentration (MIC)” value was above 32 µg/mL. Moreover, the LD100 was 0.15 µg/mL in [6] (pH 5.5, 0.25% glucose); above 300 µg/mL in experiment [7] (setting [14]); above 300 µg/mL in experiment [7] (setting [16]). In experiment [7] (setting [14]), this compound showed an LD90 of 150 µg/mL. Moreover, the max.killing in [7] (setting [16]) stood at 98.8%.
In experiment [13], HTQNSSSGQAASSHEQAR [FLG684-701] returned an LD90 above 150 µg/mL and an LD100 above 150 µg/mL. In experiment [6] (pH 5.5, 0.25% glucose), this compound had an LD90 above 300 µg/mL and an LD100 above 300 µg/mL.
Regarding “QGSHHEQSVNRSGHSGSHHSHTTSQGR [FLG528-554]”, the LD90 in experiment [13] is above 150 µg/mL; in experiment [6] (pH 5.5, 0.25% glucose), 0.15 µg/mL. In addition, the LD100 in experiment [13] is above 150 µg/mL; in experiment [6] (pH 5.5, 0.25% glucose), 0.59 µg/mL. In addition, in experiment [7] (at concentrations <60 µM (data not shown)), the “activity against S. aureus ATCC 6538” value was “lack activity”.
QSGTHHAENSSGGQAASSHEQAR [FLG2301-2323]: in [13], the LD90 was above 150 µg/mL and the LD100 was above 150 µg/mL. Moreover, in experiment [6] (pH 5.5, 0.25% glucose), the LD90 was above 300 µg/mL and the LD100 came to 300 µg/mL.
